Patent US4555403A, “Pharmacologically active peptides and medicaments containing the same” (priority 1979, dated 1985)
Non-standard residues stand in square brackets, D forms with d. Residues, ends and D or L forms follow the SMILES beside them.

Tests used:
[1] = stability of opiate-like activity upon incubation with rat brain homogenate and brain-supernate; type: in vitro ADME; conditions: for opiate-like activity after 30 minutes of incubation / opiate-like activity after 120 minutes of incubation: brain homogenate and brain-supernate, 37° C.
Protocol: All incubations of the substances with brain homogenate and brain-supernate take place at 37° C. The respective incubation time is terminated by heating for 10 min. at a temperature of 95° C. This heating up to 95° C. serves to destroy enzymes which are still present and which might be detrimental for the biological procedure for proving the opiate-like activity.
1-2 mg each of the β-casomorphin-5 and of the D-Ala^2 -β-casomorphin-5 according to the invention are put into 50 μl of H2 O and mixed with 300 μl each of brain homogenate and brain-supernate. A sample of each is immediately heated from 37° C. up to 95° C. prior to the incubation. Thus these samples are in contact with the active enzymes only for a very short time and their content of opiate-like activity serves as a reference value at a zero point of time.
After 15, 30, 60, and 120 min. each, further samples of the two incubated opiates are taken from the incubator and heated up to 95° C.
The guinea pig intestine test described by Kosterlitz et al supra, serves as a proving system, which also includes the opiate amounts quantitatively. […]

[2] = stability of opiate-like activity towards rat blood plasma; type: in vitro ADME; conditions: for stability of opiate-like activity towards blood plasma: 300 μl freshly obtained rat blood plasma, 30 minutes stated for β-casomorphin-5
Protocol: Analogously to the above-mentioned incubation example we tested the stability of the opiate-like activity towards blood plasma. Instead of 300 μl of homogenate, we employed 300 μl of freshly obtained rat blood plasma.

[3] = 0.35 μmol into the ventricle system of the brain, rats; cited from earlier work
[4] = analgetic effect after parenteral or oral application in rats; type: in vivo; conditions: up to 150 mg per kg of body weight
Protocol: The dose in these tests amounted up to 150 mg per kg of body weight of the rats. This disadvantage of the known peptides can be partially or completely attributed to inactivation of the substance in the blood and/or the brain.

Compound: COC(=O)CNC(=O)[C@@H]1CCCN1C(=O)[C@H](Cc1ccccc1)NC(=O)[C@@H](CCSC)NC(=O)[C@@H](N)Cc1ccc(O)cc1 [D-Met^2 -β-casomorphin-5, Tyr-D-Met-Phe-Pro-Gly-methylester] (H-Y[dM]FPG-OMe)
- opiate-like activity after 30 minutes of incubation [1]: still could be proven
- opiate-like activity after 120 minutes of incubation [1]: still could be proven

Compound: COC(=O)CNC(=O)[C@@H]1CCCN1C(=O)[C@H](Cc1ccccc1)NC(=O)[C@@H](CO)NC(=O)[C@@H](N)Cc1ccc(O)cc1 [D-Ser^2 -β-casomorphin-5, Tyr-D-Ser-Phe-Pro-Gly-methylester] (H-Y[dS]FPG-OMe)
- opiate-like activity after 30 minutes of incubation [1]: still could be proven
- opiate-like activity after 120 minutes of incubation [1]: still could be proven

Compound: COC(=O)CNC(=O)[C@@H]1CCCN1C(=O)[C@H](Cc1ccccc1)NC(=O)[C@@H](CCCNC(=N)N)NC(=O)[C@@H](N)Cc1ccc(O)cc1 [D-Arg^2 -β-casomorphin-5, Tyr-D-Arg-Phe-Pro-Gly-methylester] (H-Y[dR]FPG-OMe)
- opiate-like activity after 30 minutes of incubation [1]: still could be proven
- opiate-like activity after 120 minutes of incubation [1]: still could be proven

Compound: COC(=O)CNC(=O)[C@@H]1CCCN1C(=O)[C@H](Cc1ccccc1)NC(=O)[C@@H](C)NC(=O)[C@@H](N)Cc1ccc(O)cc1 [D-Ala^2 -β-casomorphin-5, Tyr-D-Ala-Phe-Pro-Gly-methylester] (H-Y[dA]FPG-OMe)
- opiate-like activity after 30 minutes of incubation [1]: still could be proven
- opiate-like activity after 120 minutes of incubation [1]: still could be proven
- stability of opiate-like activity towards blood plasma [2]: retained its full activity

Compound: Tyr-Pro-Phe-Pro-Gly (YPFPG; printed: Tyr-Pro-Phe-Pro-Gly) [β-casomorphin-5]
- opiate-like analgesia [3]: strong opiate-like analgesia
- time after which analgesia completely disappeared [3]: 60 min
- time to maximum effectiveness of analgesia [3]: ≤ 10 min
- opiate-like activity after 30 minutes of incubation [1]: did not show any opiate-like activity any longer
- incubation period after which opiate-like activity disappears ([1]; rat brain homogenate): 15 min
- analgetic effect [4]: does not show any analgetic effect
- stability of opiate-like activity towards blood plasma [2]: already destroyed
- incubation period after which opiate-like activity disappears ([2]; blood plasma): 15 min
